Experiment [1] deals with T1, NR1aNR2B NMDA receptor (NR2B subunit) (Rattus norvegicus, UniProt P35439+Q00960). The experiment in a line: whole-cell patch clamp, agonist concentration-response. The class given is cell-based. In general terms: In patch-clamp work, channel activity is measured electrically.
Experiment [2] addresses T2, NR1aNR2A NMDA receptor (NR2A subunit) (Rattus norvegicus, UniProt P35439+Q00959). Described as above. It counts as cell-based.
The test system of experiment [3] is NMDA receptor (native, hippocampal neurons). The class given is cell-based, Mus musculus.
In experiment [4] the target is T2, NR1aNR2A NMDA receptor (NR2A subunit). The experiment in a line: whole-cell patch clamp, inhibition of EC30 NMDA current. The class given is cell-based. To be noted: read-out: % inhibition at 100 μM.
Experiment [5] deals with T1, NR1aNR2B NMDA receptor (NR2B subunit). The description is as above. The settings on record: read-out: % inhibition at 100 μM. It counts as cell-based.

T1 sequence (Q00960 27-1482, other chains not shown): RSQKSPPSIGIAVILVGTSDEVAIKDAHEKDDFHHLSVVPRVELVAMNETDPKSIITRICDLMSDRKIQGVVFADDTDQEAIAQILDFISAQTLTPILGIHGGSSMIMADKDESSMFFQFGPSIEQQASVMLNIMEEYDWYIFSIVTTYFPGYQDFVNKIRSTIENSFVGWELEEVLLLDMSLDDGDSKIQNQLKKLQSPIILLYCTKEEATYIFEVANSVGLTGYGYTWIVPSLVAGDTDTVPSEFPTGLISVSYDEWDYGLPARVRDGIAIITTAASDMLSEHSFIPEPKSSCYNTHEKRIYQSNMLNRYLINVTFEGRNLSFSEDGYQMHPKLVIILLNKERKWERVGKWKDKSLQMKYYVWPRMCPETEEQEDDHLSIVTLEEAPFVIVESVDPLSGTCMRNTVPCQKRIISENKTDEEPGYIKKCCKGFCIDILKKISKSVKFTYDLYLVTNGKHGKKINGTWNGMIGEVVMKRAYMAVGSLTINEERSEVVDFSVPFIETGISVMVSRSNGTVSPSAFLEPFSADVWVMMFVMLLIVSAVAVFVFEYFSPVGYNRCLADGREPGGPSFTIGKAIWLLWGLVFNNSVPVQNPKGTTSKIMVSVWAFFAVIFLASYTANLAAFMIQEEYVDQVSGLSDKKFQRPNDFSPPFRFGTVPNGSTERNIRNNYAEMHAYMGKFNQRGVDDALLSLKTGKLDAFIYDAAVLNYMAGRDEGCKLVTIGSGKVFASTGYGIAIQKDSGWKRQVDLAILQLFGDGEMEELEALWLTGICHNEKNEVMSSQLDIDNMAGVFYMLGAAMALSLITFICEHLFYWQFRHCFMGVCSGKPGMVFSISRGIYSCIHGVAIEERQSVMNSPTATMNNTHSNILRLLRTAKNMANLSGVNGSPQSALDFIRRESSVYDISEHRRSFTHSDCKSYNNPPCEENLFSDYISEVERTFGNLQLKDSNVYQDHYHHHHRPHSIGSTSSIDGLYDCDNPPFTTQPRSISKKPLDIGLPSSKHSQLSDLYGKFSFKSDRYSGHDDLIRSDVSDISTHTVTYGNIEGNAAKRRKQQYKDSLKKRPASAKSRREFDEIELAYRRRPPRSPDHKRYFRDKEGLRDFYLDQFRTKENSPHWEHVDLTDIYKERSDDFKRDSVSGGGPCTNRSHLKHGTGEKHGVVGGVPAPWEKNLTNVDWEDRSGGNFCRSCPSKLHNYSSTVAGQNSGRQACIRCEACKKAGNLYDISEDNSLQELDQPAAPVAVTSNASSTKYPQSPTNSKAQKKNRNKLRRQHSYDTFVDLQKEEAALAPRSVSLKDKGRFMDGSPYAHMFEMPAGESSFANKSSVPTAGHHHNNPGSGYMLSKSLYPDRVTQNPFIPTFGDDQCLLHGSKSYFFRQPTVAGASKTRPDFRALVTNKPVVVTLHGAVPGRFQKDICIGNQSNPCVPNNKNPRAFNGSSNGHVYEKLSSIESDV
T2 sequence (Q00959 23-1464, other chains not shown): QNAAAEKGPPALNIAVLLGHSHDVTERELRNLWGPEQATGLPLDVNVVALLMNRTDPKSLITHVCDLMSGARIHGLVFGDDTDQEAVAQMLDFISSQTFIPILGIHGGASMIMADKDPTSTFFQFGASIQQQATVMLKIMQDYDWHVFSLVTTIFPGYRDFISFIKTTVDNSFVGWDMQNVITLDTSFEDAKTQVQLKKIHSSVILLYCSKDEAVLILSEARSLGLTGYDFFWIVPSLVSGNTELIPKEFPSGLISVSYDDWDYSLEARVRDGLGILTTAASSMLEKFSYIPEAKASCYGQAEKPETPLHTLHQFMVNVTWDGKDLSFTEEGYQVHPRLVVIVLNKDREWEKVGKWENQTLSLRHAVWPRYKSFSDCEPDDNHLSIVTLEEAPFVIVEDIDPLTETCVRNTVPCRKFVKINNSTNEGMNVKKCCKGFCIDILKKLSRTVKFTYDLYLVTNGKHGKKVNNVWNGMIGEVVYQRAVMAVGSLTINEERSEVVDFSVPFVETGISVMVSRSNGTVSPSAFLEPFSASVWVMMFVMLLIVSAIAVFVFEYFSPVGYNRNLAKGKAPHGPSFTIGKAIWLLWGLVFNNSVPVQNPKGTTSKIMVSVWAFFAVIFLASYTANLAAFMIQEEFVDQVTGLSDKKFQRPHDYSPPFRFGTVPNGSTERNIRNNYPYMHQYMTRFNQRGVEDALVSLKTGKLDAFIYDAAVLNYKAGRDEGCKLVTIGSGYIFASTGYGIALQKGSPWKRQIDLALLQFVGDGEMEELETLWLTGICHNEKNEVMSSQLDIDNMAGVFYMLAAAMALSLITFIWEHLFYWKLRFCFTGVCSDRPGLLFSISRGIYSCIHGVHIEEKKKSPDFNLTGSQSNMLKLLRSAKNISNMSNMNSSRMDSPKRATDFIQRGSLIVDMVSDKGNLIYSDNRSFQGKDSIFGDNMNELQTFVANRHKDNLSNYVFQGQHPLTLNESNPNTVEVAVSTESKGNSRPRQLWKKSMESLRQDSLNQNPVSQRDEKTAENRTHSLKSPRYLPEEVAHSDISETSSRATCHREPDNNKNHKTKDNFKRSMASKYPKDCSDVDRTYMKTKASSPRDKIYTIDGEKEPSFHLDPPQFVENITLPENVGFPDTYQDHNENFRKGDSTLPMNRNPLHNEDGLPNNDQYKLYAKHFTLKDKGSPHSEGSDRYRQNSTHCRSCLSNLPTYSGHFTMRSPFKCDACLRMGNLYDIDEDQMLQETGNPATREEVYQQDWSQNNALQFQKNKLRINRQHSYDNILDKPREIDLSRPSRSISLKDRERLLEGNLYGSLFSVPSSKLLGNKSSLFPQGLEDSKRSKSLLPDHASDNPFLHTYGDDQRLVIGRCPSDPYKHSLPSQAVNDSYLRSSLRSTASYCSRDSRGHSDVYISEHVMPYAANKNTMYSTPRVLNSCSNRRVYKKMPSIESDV

As for `CN[C@H](CC(=O)O)C(=O)O` [NMDA], the EC50 in experiment [1] was found to be 14 ± 1.3 µM; in experiment [2] it was 44 ± 5.6 µM.
For the compound `O=c1c(-c2ccc(O)cc2)coc2cc(O)ccc12` [daidzein, 4′,7-dihydroxyisoflavone], in experiment [3], the “% of control current at 100 μM” value was determined as 68 ± 1.6.
Regarding `O=c1c(-c2ccc(O)cc2)coc2cc(O)cc(O)c12` [genistein], the inhibition at 100 µM worked out at 20 ± 1.4% in experiment [4] and 26 ± 2% in experiment [5].

A word on the EC50: it is the concentration giving half of the maximal effect. Broadly, the inhibition is the percentage by which the read-out fell short of the control.

The values above are taken from article PMC2861344 (Neuropharmacology, 2010).
